These results are taken from article PMC11592477, “Bioengineering the Human Intestinal Mucosa and the Importance of Stromal Support for Pharmacological Evaluation In Vitro” (Cells, 2024).

For data set [1] the following is noted: hydrophilic drugs; in words; ref [14]; cited from earlier work.
The subject of data set [2] is Caco-2 monolayers. The conditions noted are these: hydrophilic drugs; in words; ref [14]; cited from earlier work.
The subject of data set [3] is epithelial-only (EO) Caco-2 monolayer constructs. As to the kind of experiment: Ussing chamber drug permeability, epithelial-only (EO) constructs. It counts as in vitro ADME, human.
For data set [4], the system named is full thickness (FT) intestinal constructs (Caco-2 on CCD-18co or HDFn stromal compartment). As to the kind of experiment: Ussing chamber drug permeability, full-thickness (FT) intestinal constructs. The class given is in vitro ADME, human.
For data set [5], the system named is villin. Nature of the data set: Immunofluorescence of villin in KGF-supplemented EO constructs. It counts as cell-based, human. The conditions noted are these: with KGF concentration up to 5–25 ng.mL−1. The protocol:
(§1) For conditioned medium studies, Caco-2 monolayers were established as above, but after 48 h, the medium was replenished with a 1:1 mix of fresh culture medium and conditioned medium obtained from 80% confluent fibroblast cultures (HDFn or CCD-18co). The conditioned medium was centrifuged to remove cellular debris and sterile filtered before addition to EO cultures. Similarly, KGF-supplemented cultures were seeded in standard conditions and supplemented with a range of concentrations (0.5–25 ng·mL^−1) of KGF following the establishment of cultures for 48 h. Both conditioned and KGF-supplemented media were replenished at each media change: every two days.
Wax sections were prepared for staining by de-paraffinization in Histo-Clear followed by rehydration from 100% ethanol to PBS. Antigen retrieval was performed in citrate buffer (pH 6, Sigma-Aldrich) at 95 °C for 20 min. Alternatively, EO constructs were prepared through fixation in a 1:1 ice-cold solution of methanol (Sigma-Aldrich) and acetone (Sigma-Aldrich) for 10 min at −20 °C. From this point onwards whole EO constructs and mounted tissue sections were stained in the same manner.
The samples were blocked for 1 h at room temperature in a solution consisting of 10% normal goat serum ([…], Sigma-Aldrich) and 0.1% […] (Sigma-Aldrich) in PBS. […]

For data set [6], the system named is Aminopeptidase. Nature of the data set: Aminopeptidase activity assay of KGF-supplemented EO constructs. It counts as cell-based, human. The conditions noted are these: with increasing KGF concentration (0.5–25 ng.mL−1). The protocol: as §1
Aminopeptidase activity was quantified through the catalyzation of the cleavage of L-slsninr-4-nitroanilide hydrochloride into the breakdown product 4-nitranline. This was achieved through the addition of 0.5 mL of prewarmed 1.5 mM L-analine-4-nitiroanilide hydrochloride solution (Sigma-Aldrich, St. Louis, […], USA) to the apical compartment of bioengineered tissue constructs (both EO and FT). The constructs were incubated for 1 h at 37 °C at 100 rpm using an orbital shaker. Following incubation, 100 μL of the cleavage product-containing solution was sampled from each construct and the absorbance was quantified at 405 nm using a BioTek™ ELx800 (Winooski, VT, USA) plate reader. Enzyme activity was expressed as a function of tissue area.

Data set [7] addresses MDR1 (Homo sapiens, UniProt P08183). As to the kind of experiment: MDR1-mediated Rhodamine 123 transport in EO constructs (Ussing chamber). The conditions noted are these: EO constructs supplemented with KGF 0.5–25 ng.mL−1, absence of verapamil.
The subject of data set [8] is epithelial-only (EO) Caco-2 monolayer constructs. Nature of the data set: qPCR gene expression in KGF-supplemented EO constructs. The class given is cell-based, human. The conditions noted are these: with increasing KGF concentration. The protocol:
as §1
EO tissue constructs were lysed in RLT buffer (Qiagen, Manchester, UK) and homogenized through repeated aspiration with a 20-gauge needle. […] The mRNA was suspended in molecular-grade water and stored at −80 °C prior to analysis. mRNA abundance was quantified using a Nanodrop Spectrophotometer […] and 200 ng was reverse-transcribed using the GoScript™ Reverse Transcriptase kit (Promega, Hampshire, UK), as per the manufacturer’s instructions. […] Data were analyzed through normalization to the housekeeping reference genes (GAPDH) using the ΔΔCt method and the fold change was averaged after this normalization.
On the technique in general: In qPCR the cycle at which signal appears reflects the starting amount.

The test system is the same in data set [9]. As to the kind of experiment: Transepithelial electrical resistance (TEER) of KGF-supplemented EO constructs. The conditions noted are these: with increasing KGF concentration (0.5–25 ng.mL−1). It counts as cell-based, human.
Setting [10] is: FT constructs on intestinal and dermal fibroblast foundation compared with Caco-2 monolayer EO, 100 μM.

Sequence of MDR1 (P08183 whole entry): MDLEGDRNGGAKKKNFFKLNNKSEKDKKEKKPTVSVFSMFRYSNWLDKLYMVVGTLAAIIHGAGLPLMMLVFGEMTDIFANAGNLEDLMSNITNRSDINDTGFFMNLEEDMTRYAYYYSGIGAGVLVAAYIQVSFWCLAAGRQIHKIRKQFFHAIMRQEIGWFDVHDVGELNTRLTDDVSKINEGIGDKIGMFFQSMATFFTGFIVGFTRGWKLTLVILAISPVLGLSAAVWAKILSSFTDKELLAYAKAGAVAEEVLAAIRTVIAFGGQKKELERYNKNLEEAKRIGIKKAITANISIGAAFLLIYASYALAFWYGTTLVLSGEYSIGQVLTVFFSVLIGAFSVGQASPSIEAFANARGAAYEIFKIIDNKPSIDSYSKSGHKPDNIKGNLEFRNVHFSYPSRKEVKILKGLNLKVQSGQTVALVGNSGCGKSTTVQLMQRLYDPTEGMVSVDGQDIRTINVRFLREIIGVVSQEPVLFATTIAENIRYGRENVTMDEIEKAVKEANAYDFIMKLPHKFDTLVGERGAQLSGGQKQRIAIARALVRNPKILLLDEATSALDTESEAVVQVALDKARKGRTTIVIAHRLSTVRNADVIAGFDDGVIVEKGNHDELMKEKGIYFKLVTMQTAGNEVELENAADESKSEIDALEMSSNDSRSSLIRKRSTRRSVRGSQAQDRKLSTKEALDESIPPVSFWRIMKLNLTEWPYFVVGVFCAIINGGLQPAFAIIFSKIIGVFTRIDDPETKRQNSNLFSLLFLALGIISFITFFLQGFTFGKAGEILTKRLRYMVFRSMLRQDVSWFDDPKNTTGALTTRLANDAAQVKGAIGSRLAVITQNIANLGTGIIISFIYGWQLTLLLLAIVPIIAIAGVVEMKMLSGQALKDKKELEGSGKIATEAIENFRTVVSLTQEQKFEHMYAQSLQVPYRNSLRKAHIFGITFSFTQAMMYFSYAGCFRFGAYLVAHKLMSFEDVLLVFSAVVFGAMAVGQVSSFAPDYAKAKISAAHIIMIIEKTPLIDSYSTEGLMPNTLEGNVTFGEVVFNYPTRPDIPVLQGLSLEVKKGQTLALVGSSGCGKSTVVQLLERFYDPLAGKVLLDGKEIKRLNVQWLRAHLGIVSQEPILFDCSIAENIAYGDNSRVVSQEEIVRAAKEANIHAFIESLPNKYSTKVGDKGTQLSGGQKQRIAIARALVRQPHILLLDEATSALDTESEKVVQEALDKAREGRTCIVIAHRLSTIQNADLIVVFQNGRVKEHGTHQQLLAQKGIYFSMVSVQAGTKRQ

Consider `Cc1cn([C@H]2C[C@H](N=[N+]=[N-])[C@@H](CO)O2)c(=O)[nH]c1=O` [zidovudine], for which, in [1], the absorption in vivo result was “high”. For the same molecule, the “Caco-2 permeability in vitro” value in [2] is given as “low”.
In the case of `CC(C)C[C@H](CN)CC(=O)O` [pregabalin], the absorption in vivo entry in [1] was “high”. Further, in data set [2], the “Caco-2 permeability in vitro” value is “low”.
As for `CN(Cc1cnc2nc(N)nc(N)c2n1)c1ccc(C(=O)N[C@@H](CCC(=O)O)C(=O)O)cc1` [methotrexate], the “Papp, basal-apical transport (BCRP-mediated)” value in data set [3] (EO constructs in intestinal fibroblast conditioned medium, 10 μM) is reported as “modestly enhanced”; in [4] (FT constructs with dermal fibroblast-based stromal foundation, 10 μM), “increased to the greatest extent”. The “Papp, apical-basal transport (RFC1 and PCFT)” value in data set [4] (FT co-culture constructs only, to a greater degree with dermal fibroblasts, 10 μM) is “increased”.
For the molecule Lucifer yellow, in [3] (EO constructs in intestinal fibroblast-conditioned medium vs control, not significant, 100 μM), the “permeability (Papp), basal-apical” value is listed as “slight increase”. For the same molecule, in data set [4] (setting [10]), the “permeability (Papp), apical-basal” value is recorded as “significantly increased” and the “permeability (Papp), basal-apical” value is given as “significantly increased”.
Take `COC(=O)c1ccccc1-c1c2ccc(=N)cc-2oc2cc(N)ccc12` [Rhodamine 123]: the “apparent permeability (Papp), basal-apical” value was “enhanced” in [3] (EO constructs in dermal fibroblast conditioned medium vs control, 5 μM, 120 min) and “significantly increased” in [4] (FT constructs on intestinal fibroblast foundation compared with dermal fibroblast counterpart, absence of verapamil, 5 μM). Further, the “apparent permeability (Papp), apical-basal” value in [3] (EO constructs in medium conditioned by intestinal and dermal fibroblasts vs control medium, 5 μM, 120 min) is given as “increased”; in [4] (FT constructs on intestinal vs dermal fibroblast foundation, regardless of verapamil, 5 μM) it was “no significant difference”.
Regarding `N[C@@H](C(=O)N[C@@H]1C(=O)N2C(C(=O)O)=C(Cl)CC[C@H]12)c1ccccc1` [loracarbef], in data set [1], the absorption in vivo entry is reported as “high”. Besides, the “Caco-2 permeability in vitro” value in [2] is recorded as “low”.
With `CC1(C)S[C@@H]2[C@H](NC(=O)[C@H](N)c3ccc(O)cc3)C(=O)N2[C@H]1C(=O)O` [amoxicillin], the absorption in vivo result in data set [1] is “high”. In addition, the “Caco-2 permeability in vitro” value in data set [2] is “low”.
Turning to `CC1=C(C(=O)O)N2C(=O)[C@@H](NC(=O)[C@H](N)c3ccc(O)cc3)[C@H]2SC1` [cefadroxil], the absorption in vivo entry in data set [1] was “high”. For the same molecule, the “Caco-2 permeability in vitro” value in [2] is recorded as “low”.

B1: keratinocyte growth factor (protein, UniProt P21781 32-194, looked up)
Fibroblast growth factor 7: CNDMTPEQMATNVNCSSPERHTRSYDYMEGGDIRVRRLFCRTQWYLRIDKRGKVKGTQEMKNNYNIMEIRTVAVGIVAIKGVESEFYLAMNKEGKLYAKKECNEDCNFKELILENHYNTYASAKWTHNGGEMFVALNQKGIPVRGKKTKKEQKTAHFLPMAIT
notes: keratinocyte growth factor, soluble mediator secreted by fibroblasts, added exogenously to EO constructs
With B1, in data set [5], the “immunofluorescent detection of villin” value was “increases”. Also, the aminopeptidase activity result in [6] was “increased”. Moreover, the “effect on basal-apical transport of Rhodamine 123” value in [7] is on record as “increased”. In data set [8], the “occludin gene expression (qPCR)” value was “decreased” and the “villin gene expression (qPCR)” value is listed as “increased”. For the same molecule, the TEER result in data set [9] is “decreased”.
